Here are results for 46 compounds from patent US20230087118A1, “IMIDAZO[1,2-a][sequence] DERIVATIVES AND THEIR USE IN THE TREATMENT OF DISEASE” (priority 2019, published 2023).

SMILES strings stand for the structures. Where a name gives a salt, the structure may show the parent alone.

The first test deals with T1, IRAK4 (Homo sapiens, UniProt Q9NWZ3).
T1 sequence (Q9NWZ3 1-460): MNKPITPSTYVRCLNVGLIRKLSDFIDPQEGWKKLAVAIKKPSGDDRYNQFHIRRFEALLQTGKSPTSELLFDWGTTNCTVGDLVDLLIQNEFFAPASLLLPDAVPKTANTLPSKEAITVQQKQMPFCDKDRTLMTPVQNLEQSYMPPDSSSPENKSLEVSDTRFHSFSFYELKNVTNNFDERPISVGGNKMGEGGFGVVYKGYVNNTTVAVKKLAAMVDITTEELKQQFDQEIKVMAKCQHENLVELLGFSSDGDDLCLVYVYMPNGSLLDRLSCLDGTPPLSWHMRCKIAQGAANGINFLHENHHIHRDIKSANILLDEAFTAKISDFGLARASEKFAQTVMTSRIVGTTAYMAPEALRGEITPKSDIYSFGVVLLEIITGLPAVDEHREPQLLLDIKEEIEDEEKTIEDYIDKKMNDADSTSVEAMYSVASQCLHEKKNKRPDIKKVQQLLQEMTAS
Briefly: biochemical.
Settings: not given
For `Cc1cnc2c(NC(=O)c3cn4cc(C56COC(CF)(C5)C6)nc4nc3OC(C)C)cnn2c1` [Example 434], half-maximal inhibition (IC50) was put at 0.0005 µM.

Take `COc1cc2nc(C3CCOCC3)cn2cc1C(=O)Nc1cccnc1C(C)C` [Example 187]: the 50% inhibitory concentration (IC50) (commonly the midpoint of a concentration-inhibition curve) was found to be 0.148 µM.

As to `CC(C)Oc1cc2nc(C34CCC(C)(C3)OC4)cn2cc1C(=O)Nc1cccc(C(F)(F)F)c1` (stereo not shown) [Example 510, 7-Isopropoxy-2-(1-methyl-2-oxabicyclo[2.2.1]heptan-4-yl)-N-(3-(trifluoromethyl)phenyl)imidazo[1,2-a]pyridine-6-carboxamide], the IC50 was found to be 0.001 µM.

On to `COc1ncccc1NC(=O)c1cn2cc([C@]34CC[C@](C)(C3)OC4)nc2c(OC)n1` (single isomer, unassigned) [Example 586], for which 0.002 µM corresponded to half-maximal inhibition (IC50).

`CCOc1nc(C(=O)Nc2cc(F)cnc2OC)cn2cc(C3CCCOC3)nc12` (stereo not shown) [Example 271, 8-Ethoxy-N-(5-fluoro-2-methoxypyridin-3-yl)-2-(tetrahydro-2H-pyran-3-yl)imidazo[1,2-a]pyrazine-6-carboxamide]: the IC50 amounted to 0.0073 µM.

As for `CCOc1nc(C(=O)Nc2ccn(CC)n2)cn2cc(C34COC(C)(C3)C4)nc12` [Example 501, 8-Ethoxy-N-(1-ethyl-1H-pyrazol-3-yl)-2-(1-methyl-2-oxabicyclo[2.1.1]hexan-4-yl)imidazo[1,2-a]pyrazine-6-carboxamide], the IC50 is 0.0069 µM.

The same test, now with this note: IRAK4 Biochemical Assay (1 mM ATP, 2 h) IC50 (μM), 1 mM ATP, 2 h, 100 pM IRAK4.
With `COc1ncccc1NC(=O)c1cn2cc(C34CC(OC)(C3)C4)nc2cc1OC(C)C` [Example 252, 7-Isopropoxy-2-(3-methoxybicyclo[1.1.1]pentan-1-yl)-N-(2-methoxypyridin-3-yl)imidazo[1,2-a]pyridine-6-carboxamide trifluoroacetate], inhibition was half-maximal at 0.0004 µM (IC50).

The compound `COc1cc2nc(C3CCOCC3)cn2cc1C(=O)Nc1cc(F)cn(C)c1=O` [Example 212, N-(5-fluoro-1-methyl-2-oxo-1,2-dihydropyridin-3-yl)-7-methoxy-2-(tetrahydro-2H-pyran-4-yl)imidazo[1,2-a]pyridine-6-carboxamide trifluoroacetate] had an IC50 of 0.016 µM.

The next test addresses T1, IRAK4. Description: 2-hour 10 μM ATP Biochemical Assay (MesoScale Detection format; IRAK4 phosphorylation of biotin labeled IRAK1 activation loop peptide). As to conditions: 0.1 nM IRAK4. As for the experimental part: Compounds of the invention were assessed for their ability to inhibit IRAK4 activity. The inhibitory properties of the compounds of the invention described herein can be evidenced by testing in any one of the following assays.
The 2-hour 10 μM ATP Biochemical Assay employs a MesoScale Detection (MSD) format. The kinase reaction is based on the IRAK4 phosphorylation of a biotin labeled peptide (IRAK1 activation loop sequence 360-389).
The kinase reaction in 30 μl is carried out in wells of a 384 well polypropylene assay plate, with 0.1 nM IRAK4, 1.6 μM of biotinylated peptide substrate and 10 μM ATP in 50 mM Hepes, pH 7.5, 60 mM NaCl, 5 mM MgCl2, 0.25 mM MnCl2, 2 mM DTT, 0.01% BSA, and 1% DMSO (from compound DMSO stocks), for 2 hour at room temperature. The activity is quenched with 11 μl of 70 mM EDTA, pH 8.
To detect the phosphorylated biotinylated peptide substrate, 30 μl of the quenched reaction mixture is added to equivalent wells of a 384 well streptavidin coated MesoScale plate (Meso Scale Discovery #L21SA-1). After a 1 hour incubation of the plate for 1 hour at room temperature with gentle mixing, the plate wells are washed 3 times with 50 mM Tris, pH 7.5, 150 mM NaCl, 0.02% Tween-20.
A 25 μl volume of 1:500 anti-P-Threonine Rabbit polyclonal Antibody plus 1:500 Goat-anti-Rabbit Sulfo Tag Antibody (Meso Scale Discovery R32AB-1) in 50 mM Tris, pH 7.5, 150 mM NaCl, 0.02% Tween-20 plus 2% BSA is then added to each well. After a 1-hour incubation of the plate for 1 hour at room temperature with gentle mixing, the plate wells are washed, 3 times with 50 mM Tris, pH 7.5, 150 mM NaCl, 0.02% Tween-20. A 40 μl volume of 2× MSD Read Buffer (Meso Scale Discovery R92TC-1) is added to each well, and the plate is read immediately in an MSD Plate Reader (Meso Scale Discovery).
In turn, `COc1cc2nc(C3CCOCC3)cn2cc1C(=O)Nc1cc(F)c(F)c(F)c1` [Example 137] yielded an IC50 of 0.132 µM.

Compound `COc1cccc(NC(=O)c2cn3cc(C4CCOC4)nc3cc2OC)n1` (stereo not shown) [Example 23] displayed a 50% inhibitory concentration (IC50) of 0.025 µM.

For the compound `COc1cc2nc(C3CCOCC3)cn2cc1C(=O)Nc1cccnc1C` [Example 131], the IC50 was found to be 0.025 µM.

Compound `COc1cc2nc(C3CCOCC3)cn2cc1C(=O)Nc1cc(Cl)cc(Cl)c1` [Example 133] had a concentration for half-maximal inhibition (IC50) of 0.255 µM.

Consider `COc1cccc(NC(=O)c2cn3cc(C4CC45CCOC5)nc3cc2OC)n1` (stereo not shown) [Example 16], for which it took 0.008 µM to reach half-maximal inhibition (IC50).

For the compound `COc1cc(C(=O)Nc2cccc(C(F)F)n2)cn2cc(C3(OC)CC3)nc12` [Example 91, N-(6-(difluoromethyl)pyridin-2-yl)-8-methoxy-2-(1-methoxycyclopropyl)imidazo[1,2-a]pyridine-6-carboxamide], the IC50 amounted to 0.079 µM.

As to `COc1cccc(NC(=O)c2cn3cc(C(C)(C)CC#N)nc3cc2OC)n1` [Example 13], half-maximal inhibition (IC50) was put at 0.017 µM.

In turn, `COc1cc2nc(C3CCOCC3)cn2cc1C(=O)Nc1cccnc1C1CC1` [Example 148] gave an IC50 of 0.087 µM.

For the compound `COc1cc2nc(C3CCOCC3)cn2cc1C(=O)Nc1cc(F)c(F)c(C(F)F)c1` [Example 164], the concentration for half-maximal inhibition (IC50) stood at 0.037 µM.

Take `COc1cccc(NC(=O)c2cn3cc(C45CC(C(F)F)(C4)C5)nc3cc2OC)n1` [Example 20]: the IC50 was 0.003 µM.

For the compound `COc1cccc(NC(=O)c2cn3cc(C45CC(C#N)(C4)C5)nc3cc2OC)n1` [Example 19], inhibition was half-maximal at 0.006 µM (IC50).

In turn, `COc1cccc(NC(=O)c2cn3cc(CC4COCCO4)nc3cc2OC)n1` (stereo not shown) [Example 15] displayed an IC50 of 0.031 µM.

In turn, `COc1cc2nc(C3(OC)CC3)cn2cc1C(=O)Nc1cccc(C(F)(F)F)n1` [Example 34] showed an IC50 of 0.057 µM.

As to `CCc1ncc(F)cc1NC(=O)c1cn2cc(C3CCOCC3)nc2cc1OC` [Example 128], the concentration for half-maximal inhibition (IC50) came out at 0.067 µM.

For `COc1cc2nc(C3CCOCC3)cn2cc1C(=O)Nc1cc(C)cc(C)c1` [Example 178], half-maximal inhibition (IC50) required 0.305 µM.

The compound `COc1cc2nc(C3CCOCC3)cn2cc1C(=O)N[C@H]1CC[C@@H](OC)CC1` [Example 161] had an IC50 of 0.346 µM.

`COc1cc2nc(C3CCOCC3)cn2cc1C(=O)Nc1ccc(F)c(F)c1C` [Example 181] returned an IC50 of 0.169 µM.

As to `COc1cc(C(=O)Nc2cccc(C(F)(F)F)n2)cn2cc(C3CCOCC3)nc12` [Example 75], the IC50 stood at 0.006 µM.

`COc1cc2nc(C3CCOCC3)cn2cc1C(=O)Nc1scnc1C` [Example 105] gave an IC50 of 0.043 µM.

In the case of `COc1cc2nc(C3CCOCC3)cn2cc1C(=O)N[C@@H]1COC[C@H]1F` (racemic) [Example 123], the IC50 came out at 0.741 µM.

Compound `COc1cc(C(=O)Nc2cccc(C(F)(F)F)n2)cn2cc(CC3CCOC3)nc12` (stereo not shown) [Example 72] showed an IC50 of 0.008 µM.

With `COc1cc2nc(C3CCOCC3)cn2cc1C(=O)Nc1cccc2c1CCOC2` [Example 180], half-maximal inhibition (IC50) required 0.019 µM.

Compound `COc1cc2nc(CC(C)C#N)cn2cc1C(=O)Nc1cccc(C(F)(F)F)n1` (stereo not shown) [Example 42] displayed a half-maximal inhibitory concentration (IC50) of 0.031 µM.

In turn, `COc1cc2nc(C3CCOCC3)cn2cc1C(=O)NC1CCCC2(CC2)C1` (stereo not shown) [Example 126] yielded an IC50 of 0.66 µM.

Compound `COc1cc2nc(C3CCOCC3)cn2cc1C(=O)Nc1cccc(C)c1C` [Example 153] came in with an IC50 of 0.019 µM.

`COc1cc2nc(C3CCOCC3)cn2cc1C(=O)NC1CCCC(C)C1C` (stereo not shown) [Example 175] displayed an IC50 of 0.744 µM.

`COc1cc2nc(C3CCOCC3)cn2cc1C(=O)Nc1cc(C)cc(C)n1` [Example 127]: the IC50 is 0.2 µM.

As for `COc1cc2nc(C3CC34CCOC4)cn2cc1C(=O)Nc1cccc(C(F)(F)F)n1` (stereo not shown) [Example 39], the IC50 was found to be 0.024 µM.

Turning to `COc1cccc(NC(=O)c2cn3cc(C4(OC)CC4)nc3cc2OC)n1` [Example 14], the IC50 stood at 0.026 µM.

`COc1cc2nc(C3CCOCC3)cn2cc1C(=O)Nc1cccc(F)c1` [Example 165]: the IC50 was 0.024 µM.

Take `COc1cc2nc(C3CCOCC3)cn2cc1C(=O)Nc1cccc2c1C1CCC2O1` (stereo not shown) [Example 130]: the half-inhibitory concentration (IC50) was found to be 0.14 µM.

With `COc1cc2nc(C3CCOCC3)cn2cc1C(=O)Nc1cccc(F)c1C` [Example 129], the IC50 is 0.016 µM.

The compound `COc1cccc(NC(=O)c2cn3cc(C4CCOCC4)nc3cc2OC)c1` [Example 157] came in with an IC50 of 0.021 µM.

Compound `COc1cc2nc(C3CCOCC3)cn2cc1C(=O)N[C@@H]1CCC[C@H](C2CC2)C1` (relative stereo) [Example 177] came in with an IC50 of 0.861 µM.

As for `COc1cccc(NC(=O)c2cn3cc(CC(C)C#N)nc3cc2OC)n1` (stereo not shown) [Example 12], the IC50 was determined as 0.032 µM.

As to `COc1cc2nc(C3CCOCC3)cn2cc1C(=O)Nc1cc(Cl)c(F)c(Cl)c1` [Example 119], the half-inhibitory concentration (IC50) is 0.792 µM.

The compound `COc1cc2nc(C3CCOCC3)cn2cc1C(=O)Nc1scnc1C(C)C` [Example 150] had a 50% inhibitory concentration (IC50) of 0.023 µM.

The same test, now with this note: read-out: IRAK4 Biochemical Assay (10 μM ATP, 2 h) IC50, 0.1 nM IRAK4.
`COc1cccc(NC(=O)c2cn3cc(C[C@H]4CCOC4)nc3cc2OC)n1` [Example 50, (S)-7-methoxy-N-(6-methoxypyridin-2-yl)-2-((tetrahydrofuran-3-yl)methyl)imidazo[1,2-a]pyridine-6-carboxamide]: the IC50 was 0.003 µM.
